Laboratory results: patent US4440764A, “Water soluble esters of steroid-oxazole and pharmaceutical compositions containing them” (Gruppo Lepetit S.p.A., priority 1980, dated 1984)

Experiments:
Format in all cases: in vivo
anaphylactic shock = assay: protection against anaphylactic shock in mice; details: Mus musculus, ip
Description: (§1) In the protection against anaphylactic shock and endotoxin shock in mice, the following results have been obtained: […]

endotoxin shock = assay: protection against endotoxin shock in mice; details: Mus musculus, sc
Description: as §1

[1] = system: hepatic neoglycogenetic activity; assay: hepatic neoglycogenetic activity in adrenalectomized rats
[2] = system: equilibrium sodium-potassium; assay: mineralocorticoid effects in the adrenalectomized rats; details: at doses which provide the same pharmacological effect, vs prednisolone or hydrocortisone hemisuccinate
[3] = system: carrageenin-induced oedema; assay: carrageenin-induced oedema test in rats (i.v.)
Nystatin-induced oedema = Nystatin-induced oedema test (i.v.); details: antiinflammatory equivalent doses, at the 48th, 72nd, and 96th hours, vs prednisolone hemisuccinate and hydrocortisone hemisuccinate
[4] = relative to hydrocortisone hemisuccinate
[5] = relative to prednisolone hemisuccinate

Molecule C[C@]12C=CC(=O)C=C1CC[C@@H]1[C@@H]2[C@@H](O)C[C@@]2(C)[C@H]1CC[C@]2(O)C(=O)COC(=O)CCC(=O)O [Prednisolone hemisuccinate, prednisolone hemisuccinate] has an ED50 (anaphylactic shock) of 35.5 mg/kg and an ED50 (endotoxin shock) of 50.5 mg/kg.

CC12CCC(=O)C=C1CCC1C2C(O)CC2(C)C1CCC2(O)C(=O)COC(=O)CCC(=O)O (stereo not drawn) [Hydrocortisone hemisuccinate, hydrocortisone hemisuccinate] was tested, and the ED50 (anaphylactic shock) was 143 mg/kg and the ED50 (endotoxin shock) was 180 mg/kg.

For CC1=NC2(C(=O)COC(=O)CCC(=O)O)C(CC3C4CCC5=CC(=O)C=CC5(C)C4C(O)CC32C)O1 (stereo not drawn) [Deflazacort hemisuccinate, 11β,21-dihydroxy-2'-methyl-5'H-pregna-1,4-dieno[17,16-d]oxazole-3,20-dione-21-hemisuccinate], the ED50 (anaphylactic shock) was 22 mg/kg, the “hepatic neoglycogenetic activity, times more potent than hydrocortisone hemisuccinate” value [1, 4] was ~40 times and the “hepatic neoglycogenetic activity, times more potent than prednisolone hemisuccinate” value [1, 5] was “about 5 times”. The “mineralocorticoid effects (effect on equilibrium sodium-potassium)” value [2] was “affects the equilibrium sodium-potassium much less than prednisolone or hydrocortisone hemisuccinate”, the ED50 (endotoxin shock) was 31 mg/kg and the “times more active than hydrocortisone hemisuccinate” value [3, 4] was 142 times. For the same molecule, the “times more active than prednisolone hemisuccinate” value [3, 5] was 15 times and the “duration of antiphlogistic activity versus reference compounds” value (Nystatin-induced oedema) was “longer lasting antiphlogistic activity than the reference compounds”.
